Experimental data: PubChem BioAssay AID1963837 (Molecular Pharmacology Branch, DTP, NCI, 2024)

System: 843126-344-R-J1-PDC complex spheroid viability
Assay: Anticancer human tumor 843126-344-R-J1-PDC patient-derived melanoma cell line growth inhibition [POLQ]
Conditions: for IC50: curve of first compound; for viability, T/C: stronger effect = lower value
Procedure, shortened: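 Three-cell-type spheroids modelling solid tumor plus stroma served as the readout system; POL inhibitors were tested individually and in combination, concentration ranges set by clinical Cmax where known.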

[1] = second compound 0.0316 µM, first compound 0.0316 µM
[2] = second compound 0.0316 µM, first compound 0.1 µM
[3] = second compound 0.0316 µM, first compound 0.316 µM
[4] = second compound 0.0316 µM, first compound 1 µM
[5] = second compound 0.0316 µM, first compound 3.16 µM
[6] = second compound 0.0316 µM, first compound 10 µM
[7] = second compound 0.1 µM, first compound 0.0316 µM
[8] = second compound 0.1 µM, first compound 0.1 µM
[9] = second compound 0.1 µM, first compound 0.316 µM
[10] = second compound 0.1 µM, first compound 1 µM
[11] = second compound 0.1 µM, first compound 3.16 µM
[12] = second compound 0.1 µM, first compound 10 µM
[13] = second compound 0.316 µM, first compound 0.0316 µM
[14] = second compound 0.316 µM, first compound 0.1 µM
[15] = second compound 0.316 µM, first compound 0.316 µM
[16] = second compound 0.316 µM, first compound 1 µM
[17] = second compound 0.316 µM, first compound 3.16 µM
[18] = second compound 0.316 µM, first compound 10 µM
[19] = second compound 1 µM, first compound 0.0316 µM
[20] = second compound 1 µM, first compound 0.1 µM
[21] = second compound 1 µM, first compound 0.316 µM
[22] = second compound 1 µM, first compound 1 µM
[23] = second compound 1 µM, first compound 3.16 µM
[24] = second compound 1 µM, first compound 10 µM
[25] = second compound 3.16 µM, first compound 0.0316 µM
[26] = second compound 3.16 µM, first compound 0.1 µM
[27] = second compound 3.16 µM, first compound 0.316 µM
[28] = second compound 3.16 µM, first compound 1 µM
[29] = second compound 3.16 µM, first compound 3.16 µM
[30] = second compound 3.16 µM, first compound 10 µM
[31] = second compound 10 µM, first compound 0.0316 µM
[32] = second compound 10 µM, first compound 0.1 µM
[33] = second compound 10 µM, first compound 0.316 µM
[34] = second compound 10 µM, first compound 1 µM
[35] = second compound 10 µM, first compound 3.16 µM
[36] = second compound 10 µM, first compound 10 µM
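For viability, T/C in this document: spheroids exposed to drugs for seven days before readout.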

## O=C(c1cc(Cc2n[nH]c(=O)c3ccccc23)ccc1F)N1CCN(C(=O)C2CC2)CC1 + Nc1ccc(C#CCN(C(=O)Cc2ncc(C(F)(F)F)cc2C(F)(F)F)c2ccc(F)cc2)nn1
Second compound 0.0316 µM
  IC50: > 10 µM
Second compound 0.1 µM
  IC50: > 10 µM
Second compound 0.316 µM
  IC50: > 10 µM
Second compound 1 µM
  IC50: > 10 µM
Second compound 3.16 µM
  IC50: > 10 µM
Second compound 10 µM
  IC50: > 10 µM
[1]
  viability, T/C: 98.2%
[2]
  viability, T/C: 73.7%
[3]
  viability, T/C: 93.5%
[4]
  viability, T/C: 90%
[5]
  viability, T/C: 92.1%
[6]
  viability, T/C: 75.4%
[7]
  viability, T/C: 90.1%
[8]
  viability, T/C: 93.5%
[9]
  viability, T/C: 86.9%
[10]
  viability, T/C: 91.3%
[11]
  viability, T/C: 82.7%
[12]
  viability, T/C: 67.1%
[13]
  viability, T/C: 102%
[14]
  viability, T/C: 98%
[15]
  viability, T/C: 84%
[16]
  viability, T/C: 84.1%
[17]
  viability, T/C: 90.7%
[18]
  viability, T/C: 80.2%
[19]
  viability, T/C: 93.1%
[20]
  viability, T/C: 93.9%
[21]
  viability, T/C: 84.3%
[22]
  viability, T/C: 88.9%
[23]
  viability, T/C: 84.2%
[24]
  viability, T/C: 76.8%
[25]
  viability, T/C: 92.7%
[26]
  viability, T/C: 93.7%
[27]
  viability, T/C: 85.8%
[28]
  viability, T/C: 92.2%
[29]
  viability, T/C: 80.6%
[30]
  viability, T/C: 82.6%
[31]
  viability, T/C: 80.7%
[32]
  viability, T/C: 85.5%
[33]
  viability, T/C: 88%
[34]
  viability, T/C: 92.7%
[35]
  viability, T/C: 81.3%
[36]
  viability, T/C: 68.7%

## O=c1[nH]cc(F)c(=O)[nH]1 + COC1C(OC(N)=O)C(O)C(Oc2ccc3c(O)c(NC(=O)c4ccc(O)c(CC=C(C)C)c4)c(=O)oc3c2C)OC1(C)C
Second compound 0.0316 µM
  IC50: > 10 µM
Second compound 0.1 µM
  IC50: > 10 µM
Second compound 0.316 µM
  IC50: > 10 µM
Second compound 1 µM
  IC50: > 10 µM
Second compound 3.16 µM
  IC50: > 10 µM
Second compound 10 µM
  IC50: > 10 µM
[1]
  viability, T/C: 97.9%
[2]
  viability, T/C: 76.6%
[3]
  viability, T/C: 91.9%
[4]
  viability, T/C: 102%
[5]
  viability, T/C: 99.3%
[6]
  viability, T/C: 87.7%
[7]
  viability, T/C: 99.2%
[8]
  viability, T/C: 99%
[9]
  viability, T/C: 102%
[10]
  viability, T/C: 84.2%
[11]
  viability, T/C: 82.7%
[12]
  viability, T/C: 73.3%
[13]
  viability, T/C: 92.4%
[14]
  viability, T/C: 116%
[15]
  viability, T/C: 89.5%
[16]
  viability, T/C: 81.7%
[17]
  viability, T/C: 75.3%
[18]
  viability, T/C: 70.4%
[19]
  viability, T/C: 76.6%
[20]
  viability, T/C: 85.4%
[21]
  viability, T/C: 80.3%
[22]
  viability, T/C: 90.2%
[23]
  viability, T/C: 92.8%
[24]
  viability, T/C: 64.3%
[25]
  viability, T/C: 94.2%
[26]
  viability, T/C: 94.3%
[27]
  viability, T/C: 89.7%
[28]
  viability, T/C: 103%
[29]
  viability, T/C: 75.2%
[30]
  viability, T/C: 70.4%
[31]
  viability, T/C: 78.8%
[32]
  viability, T/C: 88.1%
[33]
  viability, T/C: 93%
[34]
  viability, T/C: 80.6%
[35]
  viability, T/C: 94.3%
[36]
  viability, T/C: 71.5%
